In publication PMC11286609, “In vitro and in vivo analyses of eFAP: a novel FAP-targeting small molecule for radionuclide theranostics and other oncological interventions” (EJNMMI Radiopharmacy and Chemistry, 2024):

Key:
PS-1 cells = assay: Confocal microscopy of fluorescent tracer uptake, PS-1; format: cell-based
Procedure: (§1) Cell experiments were performed with the human sarcoma HT1080 cell line, stably transduced with human FAP (HT1080-huFAP) which were kindly provided by Prof. Dr. Uwe Haberkorn from the University of Heidelberg. The wild type HT1080 (ATTC), hereafter HT080-WT, was used as a negative control. Additionally, the pancreatic stellate cells PS-1, obtained from Queen Mary University, were used as an endogenously FAP expressing cell line. HT1080-huFAP and HT1080-WT cells were cultured in DMEM Glutamax© (Gibco; Breda, The Netherlands) and the PS-1 cells were cultured in RPMI (Gibco). Both media were supplemented with 10% FBS (Gibco), 100 UI/mL penicillin, and 100 µg/mL streptomycin (Merck Life Science NV; Amsterdam, The Netherlands). All cell lines were regularly passaged at 80% confluence and cultured at 37 °C, 5% CO2.
(§2) Fluorescent tracer uptake was analyzed on HT1080-huFAP, HT1080-WT, and PS-1 cells. One day prior to the assay 280,000 HT1080-huFAP, 300,000 HT1080-WT, and 460,000 PS-1 cells were seeded on […] coverslips in a 6-well plate. […] Cells incubated only in medium were taken along to correct for auto-fluorescence. […] Analyses were performed in Fiji (Schindelin et al. [2012]) and were subjected to a custom-made macro to correct for auto-fluorescence signal. […]

[1] = Stability in PBS at 37 °C (radio-HPLC / LC-MS); format: physicochemical; conditions: % intact labeled ligand, 37 °C
Procedure: (§3) For the stability assessment of eFAP-6, [^111In]In-eFAP-6 or [^177Lu]Lu-eFAP-6 (~ 3–7 MBq, 20 µL) was mixed with 180 µL of PBS (0.01 M, pH 7.4) and incubated at 37 °C for up to 24 h. A sample of the PBS solution was directly injected on the radio-HPLC at 1, 4, and 24 h after incubation. Additionally, [^111In]In-eFAP-6 and [^177Lu]Lu-eFAP-6 (5–15 MBq, 50 µL) were incubated with 350 µL of commercially acquired mouse or human serum (Biolegend; San Diego, CA, USA) at 37 °C for up to 24 h. Following 1, 4, and 24 h of incubation, 50 µL of the solution were mixed with 50 µL of acetonitrile in an Eppendorf tube, and centrifuged at 5000× g for 20 min. The supernatant was then analyzed by radio-HPLC. Stability studies of eFAP-7 were performed by incubation of eFAP-7 (50 µL, 10^− 4 M) in 450 µL PBS or serum at 37 °C for up to 24 h. After 1, 4, and 24 h of incubation, 50 µL of the PBS incubation solution were directly analyzed by liquid chromatography-mass spectrometry (LC-MS), while 50 µL of the serum solution was mixed with 50 µL of acetonitrile in an Eppendorf tube, and centrifuged at 5000× g for 20 min, followed by LC-MS analyses.

[2] = Stability in human serum at 37 °C (radio-HPLC / LC-MS); format: in vitro ADME; conditions: % intact labeled ligand, human serum, 37 °C
Procedure: as §3

HT1080-WT cells = assay: Confocal microscopy of fluorescent tracer uptake, HT1080-WT; format: cell-based, human; conditions: HT1080-WT (FAP-negative control), 1 nM
Procedure: as §1, §2

HT1080-huFAP cells = assay: Confocal microscopy of fluorescent tracer uptake, HT1080-huFAP; format: cell-based, human
Procedure: as §1, §2

[3] = Stability in mouse serum at 37 °C (radio-HPLC / LC-MS); format: in vitro ADME; conditions: % intact labeled ligand, mouse serum, 37 °C
Procedure: as §3

Stability (% ± SD) PBS 1 h ([1]; 1 h): 99.5 ± 0.5%
Stability (% ± SD) PBS 4 h ([1]; 4 h): 99.2 ± 0.7%
Stability (% ± SD) PBS 24 h ([1]; 24 h): 99.1 ± 0.1%
Stability (% ± SD) Human serum 1 h ([2]; 1 h): 87.6 ± 0.9%
Stability (% ± SD) Human serum 4 h ([2]; 4 h): 87.9 ± 2.3%
Stability (% ± SD) Human serum 24 h ([2]; 24 h): 85.5 ± 2.1%
Stability (% ± SD) Mouse serum 1 h ([3]; 1 h): 85.0 ± 3.3%
Stability (% ± SD) Mouse serum 4 h ([3]; 4 h): 83.2 ± 4.1%
Stability (% ± SD) Mouse serum 24 h ([3]; 24 h): 76.2 ± 7.1%
SMILES: CN1/C(=C/C=C/C=C/C2=[N+](CCCCCC(=O)NCCCOc3cccc4c(C(=O)NCC(=O)N5CC(F)(F)C[C@H]5C#N)ccnc34)c3ccc(S(=O)(=O)[O-])cc3C2(C)C)C(C)(C)c2cc(S(=O)(=O)O)ccc21 [eFAP-7, 1-(6-((3-((4-((2-((S)-2-cyano-4,4-difluoropyrrolidin-1-yl)-2-oxoethyl)carbamoyl)quinolin-8-yl)oxy)propyl)amino)-6-oxohexyl)-3,3-dimethyl-5-sulfo-2-((1E,3E)-5-((E)-1,3,3-trimethyl-5-sulfoindolin-2-ylidene)penta-1,3-dien-1-yl)-3H-indol-1-ium]
sCy5 signal with an excess of UAMC-1110 (PS-1 cells; PS-1, 1 nM tracer + 1 mM UAMC-1110): almost no visible signal
uptake in PS-1 cells relative to HT1080-huFAP (PS-1 cells; PS-1, 1 nM, 15 and 45 min): visibly lower than for HT1080-huFAP
uptake in HT1080-WT cells (HT1080-WT cells): no uptake was observed
sCy5 signal with an excess of UAMC-1110 (HT1080-huFAP cells; 1 nM tracer + 1 mM UAMC-1110): almost no visible signal
sCy5 signal (uptake) in cells (HT1080-huFAP cells; 1 nM, 15 and 45 min of incubation): a clear signal was visible
